The results in this text go back to ChEMBL document CHEMBL1149912, “Chemical fragments as foundations for understanding target space and activity prediction” (J Med Chem, 2008).

SMILES strings stand for the structures.

Experiment [1] addresses Voltage-dependent N-type calcium channel subunit alpha-1B (Homo sapiens) (UniProt Q00975). Put plainly: Inhibition of CACNA1B.
Experiment [2] has as its target Neprilysin (Homo sapiens) (UniProt P08473). As to the kind of experiment: Inhibition of MME.
In experiment [3] the target is Leukotriene B4 receptor 1 (Homo sapiens) (UniProt Q15722). Put plainly: Inhibition of LTB4R.
Experiment [4] has as its target Mitogen-activated protein kinase 14 (Homo sapiens) (UniProt Q16539). As to the kind of experiment: Inhibition of MAPK14.
The target of experiment [5] is Sodium-dependent dopamine transporter (Homo sapiens) (UniProt Q01959). As to the kind of experiment: Inhibition of SLC6A3.
The target in experiment [6] is T1, Renin (Homo sapiens) (UniProt P00797).
T1 sequence (whole entry): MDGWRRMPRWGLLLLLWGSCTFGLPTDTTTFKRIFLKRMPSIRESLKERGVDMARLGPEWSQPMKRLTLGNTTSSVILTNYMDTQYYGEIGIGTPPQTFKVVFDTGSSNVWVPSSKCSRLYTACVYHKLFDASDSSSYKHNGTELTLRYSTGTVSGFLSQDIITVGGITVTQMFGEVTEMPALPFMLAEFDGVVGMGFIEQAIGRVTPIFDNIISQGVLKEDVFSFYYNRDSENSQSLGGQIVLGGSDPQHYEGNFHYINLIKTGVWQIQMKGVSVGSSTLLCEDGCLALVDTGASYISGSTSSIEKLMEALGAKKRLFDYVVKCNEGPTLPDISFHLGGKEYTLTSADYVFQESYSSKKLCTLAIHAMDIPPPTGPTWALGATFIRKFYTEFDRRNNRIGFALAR
Put plainly: Inhibition of REN.

For experiment [7], the target named is Cathepsin B (Homo sapiens) (UniProt P07858). Put plainly: Inhibition of CTSB.
Experiment [8] has as its target Prothrombin (Homo sapiens) (UniProt P00734). Put plainly: Inhibition of thrombin.
The target of experiment [9] is T2, Cholecystokinin receptor type A (Homo sapiens) (UniProt P32238).
T2 sequence (whole entry): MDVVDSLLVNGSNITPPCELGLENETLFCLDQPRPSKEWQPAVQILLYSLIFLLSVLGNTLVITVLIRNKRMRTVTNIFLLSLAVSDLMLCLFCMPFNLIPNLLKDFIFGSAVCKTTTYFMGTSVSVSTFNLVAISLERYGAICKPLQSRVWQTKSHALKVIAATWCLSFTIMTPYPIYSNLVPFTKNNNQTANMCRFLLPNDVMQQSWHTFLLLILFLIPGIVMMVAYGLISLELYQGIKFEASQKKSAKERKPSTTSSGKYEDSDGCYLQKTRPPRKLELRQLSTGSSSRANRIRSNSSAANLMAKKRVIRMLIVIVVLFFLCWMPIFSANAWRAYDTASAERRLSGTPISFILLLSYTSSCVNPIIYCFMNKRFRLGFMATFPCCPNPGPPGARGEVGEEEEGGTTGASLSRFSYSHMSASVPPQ
Put plainly: Inhibition of CCKAR.

Experiment [10] addresses Muscarinic acetylcholine receptor M3 (Homo sapiens) (UniProt P20309). As to the kind of experiment: Inhibition of CHRM3.
In experiment [11] the target is Metabotropic glutamate receptor 2 (Homo sapiens) (UniProt Q14416). Put plainly: Inhibition of GRM2.
The target of experiment [12] is T3, Glucocorticoid receptor (Homo sapiens) (UniProt P04150).
T3 sequence (whole entry): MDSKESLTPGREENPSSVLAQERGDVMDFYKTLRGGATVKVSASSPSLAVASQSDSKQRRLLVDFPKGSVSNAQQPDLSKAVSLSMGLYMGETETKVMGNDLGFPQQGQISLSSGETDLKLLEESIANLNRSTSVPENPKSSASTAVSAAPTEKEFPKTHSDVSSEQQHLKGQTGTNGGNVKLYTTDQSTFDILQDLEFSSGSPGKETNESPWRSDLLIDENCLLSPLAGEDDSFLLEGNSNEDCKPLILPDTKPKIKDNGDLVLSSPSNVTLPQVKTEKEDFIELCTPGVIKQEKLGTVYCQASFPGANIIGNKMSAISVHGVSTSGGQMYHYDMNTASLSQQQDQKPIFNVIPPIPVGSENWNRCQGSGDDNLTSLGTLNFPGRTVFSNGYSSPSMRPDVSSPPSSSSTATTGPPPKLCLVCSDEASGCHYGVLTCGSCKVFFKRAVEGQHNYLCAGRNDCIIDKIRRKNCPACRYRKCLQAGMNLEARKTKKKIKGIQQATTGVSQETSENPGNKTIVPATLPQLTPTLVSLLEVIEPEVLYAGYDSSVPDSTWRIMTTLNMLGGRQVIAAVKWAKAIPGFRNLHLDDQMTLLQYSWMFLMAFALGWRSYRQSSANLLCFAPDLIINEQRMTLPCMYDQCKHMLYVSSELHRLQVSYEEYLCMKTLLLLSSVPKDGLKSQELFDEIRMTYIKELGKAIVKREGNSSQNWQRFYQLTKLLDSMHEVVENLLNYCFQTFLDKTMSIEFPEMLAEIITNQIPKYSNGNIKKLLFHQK
As to the kind of experiment: Inhibition of NR3C1.

For experiment [13], the target named is T4, Prostaglandin D2 receptor 2 (Homo sapiens) (UniProt Q9Y5Y4).
T4 sequence (whole entry): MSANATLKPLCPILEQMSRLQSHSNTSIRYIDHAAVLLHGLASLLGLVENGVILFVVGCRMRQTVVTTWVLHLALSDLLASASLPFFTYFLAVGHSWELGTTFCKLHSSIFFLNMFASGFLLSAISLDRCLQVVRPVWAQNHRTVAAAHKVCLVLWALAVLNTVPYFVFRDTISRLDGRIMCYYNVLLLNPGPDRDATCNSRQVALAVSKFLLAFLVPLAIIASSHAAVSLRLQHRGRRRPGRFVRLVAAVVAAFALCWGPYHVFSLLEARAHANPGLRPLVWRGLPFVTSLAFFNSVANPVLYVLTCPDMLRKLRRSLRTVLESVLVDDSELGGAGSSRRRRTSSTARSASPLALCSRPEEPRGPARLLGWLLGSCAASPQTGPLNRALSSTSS
As to the kind of experiment: Inhibition of GPR44.

Experiment [14] addresses Stromelysin-1 (Homo sapiens) (UniProt P08254). Put plainly: Inhibition of MMP3.
For experiment [15], the system named is NMDA receptor subunit 1, GRIN1. Put plainly: Inhibition of GRIN1.
Experiment [16] addresses Aldo-keto reductase family 1 member B1 (Homo sapiens) (UniProt P15121). As to the kind of experiment: Inhibition of AKR1B1.
Experiment [17] concerns the target Kappa-type opioid receptor (Homo sapiens) (UniProt P41145). As to the kind of experiment: Inhibition of OPRK1.

Chain of Stromelysin-1 (Homo sapiens) (P08254 100-477 limits assumed): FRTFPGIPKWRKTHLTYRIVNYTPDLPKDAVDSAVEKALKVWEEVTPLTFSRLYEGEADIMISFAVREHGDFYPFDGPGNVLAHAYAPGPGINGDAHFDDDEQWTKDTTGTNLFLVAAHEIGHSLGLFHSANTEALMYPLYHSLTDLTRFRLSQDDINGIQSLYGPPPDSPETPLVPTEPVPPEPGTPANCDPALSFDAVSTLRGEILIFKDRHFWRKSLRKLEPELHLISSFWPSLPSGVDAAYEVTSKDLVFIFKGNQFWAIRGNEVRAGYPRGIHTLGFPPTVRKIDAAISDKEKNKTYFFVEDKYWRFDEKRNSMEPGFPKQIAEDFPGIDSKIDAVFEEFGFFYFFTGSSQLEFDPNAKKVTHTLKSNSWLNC
Chain of Neprilysin (Homo sapiens) (P08473 whole entry): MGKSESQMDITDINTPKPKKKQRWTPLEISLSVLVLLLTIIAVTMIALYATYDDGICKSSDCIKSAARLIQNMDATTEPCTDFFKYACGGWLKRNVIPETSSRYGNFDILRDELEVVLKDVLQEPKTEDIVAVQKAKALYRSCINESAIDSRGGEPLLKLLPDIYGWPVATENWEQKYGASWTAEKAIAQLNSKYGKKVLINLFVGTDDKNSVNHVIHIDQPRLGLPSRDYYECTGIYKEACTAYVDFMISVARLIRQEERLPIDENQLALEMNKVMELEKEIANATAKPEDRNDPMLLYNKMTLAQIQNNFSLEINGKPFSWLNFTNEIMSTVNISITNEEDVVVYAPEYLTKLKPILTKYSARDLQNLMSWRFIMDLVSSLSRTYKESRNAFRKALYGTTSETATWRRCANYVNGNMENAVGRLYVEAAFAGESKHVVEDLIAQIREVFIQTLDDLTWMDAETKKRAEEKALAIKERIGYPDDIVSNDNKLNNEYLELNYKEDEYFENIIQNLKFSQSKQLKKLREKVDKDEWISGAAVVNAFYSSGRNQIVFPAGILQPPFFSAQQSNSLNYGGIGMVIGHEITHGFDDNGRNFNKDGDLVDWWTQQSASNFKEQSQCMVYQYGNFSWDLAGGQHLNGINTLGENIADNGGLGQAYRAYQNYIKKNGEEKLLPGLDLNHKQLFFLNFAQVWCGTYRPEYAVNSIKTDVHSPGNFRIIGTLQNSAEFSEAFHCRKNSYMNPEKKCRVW
Chain of Leukotriene B4 receptor 1 (Homo sapiens) (Q15722 whole entry): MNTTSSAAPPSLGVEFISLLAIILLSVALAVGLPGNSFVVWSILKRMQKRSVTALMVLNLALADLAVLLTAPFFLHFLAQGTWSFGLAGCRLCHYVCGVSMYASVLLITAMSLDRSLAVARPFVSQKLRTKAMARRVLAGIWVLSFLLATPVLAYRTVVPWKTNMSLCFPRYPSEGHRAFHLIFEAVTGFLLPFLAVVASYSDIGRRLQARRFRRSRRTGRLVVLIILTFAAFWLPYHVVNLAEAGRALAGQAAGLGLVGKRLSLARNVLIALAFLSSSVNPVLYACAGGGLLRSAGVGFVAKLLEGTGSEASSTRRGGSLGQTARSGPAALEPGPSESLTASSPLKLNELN
Chain of Voltage-dependent N-type calcium channel subunit alpha-1B (Homo sapiens) (Q00975 whole entry, looked up): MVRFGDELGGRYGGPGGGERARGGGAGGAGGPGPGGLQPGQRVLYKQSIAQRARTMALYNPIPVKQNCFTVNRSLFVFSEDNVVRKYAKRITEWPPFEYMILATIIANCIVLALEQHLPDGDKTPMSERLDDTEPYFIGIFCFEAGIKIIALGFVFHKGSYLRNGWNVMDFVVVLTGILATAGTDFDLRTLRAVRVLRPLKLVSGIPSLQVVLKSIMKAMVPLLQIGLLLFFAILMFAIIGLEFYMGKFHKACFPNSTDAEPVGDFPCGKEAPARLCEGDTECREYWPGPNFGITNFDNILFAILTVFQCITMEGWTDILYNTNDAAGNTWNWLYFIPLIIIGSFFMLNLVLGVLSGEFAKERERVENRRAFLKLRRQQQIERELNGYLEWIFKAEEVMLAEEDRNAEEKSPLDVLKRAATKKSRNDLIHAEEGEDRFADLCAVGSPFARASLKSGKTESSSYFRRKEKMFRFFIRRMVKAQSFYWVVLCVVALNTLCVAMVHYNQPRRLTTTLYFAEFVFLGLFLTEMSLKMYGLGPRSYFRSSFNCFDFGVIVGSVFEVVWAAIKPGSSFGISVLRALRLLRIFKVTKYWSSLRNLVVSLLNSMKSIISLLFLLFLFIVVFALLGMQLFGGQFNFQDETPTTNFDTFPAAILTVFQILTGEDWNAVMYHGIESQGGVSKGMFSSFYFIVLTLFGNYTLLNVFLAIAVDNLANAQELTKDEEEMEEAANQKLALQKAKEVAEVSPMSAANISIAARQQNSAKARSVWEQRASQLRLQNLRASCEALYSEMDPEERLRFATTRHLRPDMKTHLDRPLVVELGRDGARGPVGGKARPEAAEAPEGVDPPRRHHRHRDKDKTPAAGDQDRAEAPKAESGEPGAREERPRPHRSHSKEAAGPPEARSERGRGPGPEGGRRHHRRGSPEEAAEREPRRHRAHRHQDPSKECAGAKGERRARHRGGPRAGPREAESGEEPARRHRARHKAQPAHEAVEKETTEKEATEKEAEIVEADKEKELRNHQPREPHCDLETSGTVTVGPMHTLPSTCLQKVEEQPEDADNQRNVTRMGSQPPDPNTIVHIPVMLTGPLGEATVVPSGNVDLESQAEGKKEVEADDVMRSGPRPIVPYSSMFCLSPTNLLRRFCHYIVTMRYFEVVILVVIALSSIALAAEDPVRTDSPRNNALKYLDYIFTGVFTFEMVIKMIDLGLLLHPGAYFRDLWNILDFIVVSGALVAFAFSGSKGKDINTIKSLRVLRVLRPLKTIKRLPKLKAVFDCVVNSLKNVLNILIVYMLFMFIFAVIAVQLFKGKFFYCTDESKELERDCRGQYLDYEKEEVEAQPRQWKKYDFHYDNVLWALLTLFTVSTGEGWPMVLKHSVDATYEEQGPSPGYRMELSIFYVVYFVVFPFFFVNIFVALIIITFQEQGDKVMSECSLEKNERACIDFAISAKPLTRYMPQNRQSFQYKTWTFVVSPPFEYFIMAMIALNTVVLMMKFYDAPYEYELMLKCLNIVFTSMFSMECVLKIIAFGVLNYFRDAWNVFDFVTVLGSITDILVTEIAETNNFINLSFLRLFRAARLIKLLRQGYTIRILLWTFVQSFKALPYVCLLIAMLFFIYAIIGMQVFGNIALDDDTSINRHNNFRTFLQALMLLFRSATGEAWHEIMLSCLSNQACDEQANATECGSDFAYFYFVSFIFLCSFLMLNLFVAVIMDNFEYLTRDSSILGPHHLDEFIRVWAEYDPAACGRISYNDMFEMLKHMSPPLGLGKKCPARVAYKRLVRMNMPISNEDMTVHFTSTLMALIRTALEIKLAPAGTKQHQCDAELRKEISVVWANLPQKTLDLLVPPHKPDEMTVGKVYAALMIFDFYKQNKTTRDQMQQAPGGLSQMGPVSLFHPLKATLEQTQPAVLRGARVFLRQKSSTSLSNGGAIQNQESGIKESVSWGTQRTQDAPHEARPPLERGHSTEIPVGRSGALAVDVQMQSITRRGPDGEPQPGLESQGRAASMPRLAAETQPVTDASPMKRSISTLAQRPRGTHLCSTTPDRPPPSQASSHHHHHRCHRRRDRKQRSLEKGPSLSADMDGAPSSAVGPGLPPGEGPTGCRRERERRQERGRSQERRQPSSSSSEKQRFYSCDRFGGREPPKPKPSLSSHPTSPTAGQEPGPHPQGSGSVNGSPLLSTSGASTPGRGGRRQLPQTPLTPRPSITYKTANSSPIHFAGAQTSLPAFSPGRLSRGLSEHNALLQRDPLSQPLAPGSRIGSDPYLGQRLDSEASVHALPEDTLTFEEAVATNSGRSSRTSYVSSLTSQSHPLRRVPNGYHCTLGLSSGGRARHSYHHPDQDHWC
Chain of Metabotropic glutamate receptor 2 (Homo sapiens) (Q14416 19-872 limits assumed): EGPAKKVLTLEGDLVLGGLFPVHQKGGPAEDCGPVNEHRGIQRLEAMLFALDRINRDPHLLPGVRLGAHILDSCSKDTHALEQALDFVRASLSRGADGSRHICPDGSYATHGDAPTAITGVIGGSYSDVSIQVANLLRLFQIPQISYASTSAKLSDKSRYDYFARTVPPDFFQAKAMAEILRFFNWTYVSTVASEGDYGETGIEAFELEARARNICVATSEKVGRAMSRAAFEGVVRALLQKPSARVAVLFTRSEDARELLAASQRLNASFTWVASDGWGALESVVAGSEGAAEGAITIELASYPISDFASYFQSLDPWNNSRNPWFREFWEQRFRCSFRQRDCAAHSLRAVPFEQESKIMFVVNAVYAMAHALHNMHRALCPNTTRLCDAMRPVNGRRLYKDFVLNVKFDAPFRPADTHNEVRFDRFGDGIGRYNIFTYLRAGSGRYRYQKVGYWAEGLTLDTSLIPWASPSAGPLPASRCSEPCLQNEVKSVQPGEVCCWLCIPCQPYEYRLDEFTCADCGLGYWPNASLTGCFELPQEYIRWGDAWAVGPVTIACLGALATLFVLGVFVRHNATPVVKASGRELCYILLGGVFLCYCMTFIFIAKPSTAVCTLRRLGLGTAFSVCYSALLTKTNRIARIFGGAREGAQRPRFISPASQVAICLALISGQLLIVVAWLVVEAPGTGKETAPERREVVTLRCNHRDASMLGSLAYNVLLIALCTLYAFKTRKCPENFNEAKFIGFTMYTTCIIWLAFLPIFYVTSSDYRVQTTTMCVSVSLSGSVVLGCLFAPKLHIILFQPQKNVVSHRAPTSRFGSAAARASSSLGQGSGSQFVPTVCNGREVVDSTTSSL
Chain of Kappa-type opioid receptor (Homo sapiens) (P41145 whole entry): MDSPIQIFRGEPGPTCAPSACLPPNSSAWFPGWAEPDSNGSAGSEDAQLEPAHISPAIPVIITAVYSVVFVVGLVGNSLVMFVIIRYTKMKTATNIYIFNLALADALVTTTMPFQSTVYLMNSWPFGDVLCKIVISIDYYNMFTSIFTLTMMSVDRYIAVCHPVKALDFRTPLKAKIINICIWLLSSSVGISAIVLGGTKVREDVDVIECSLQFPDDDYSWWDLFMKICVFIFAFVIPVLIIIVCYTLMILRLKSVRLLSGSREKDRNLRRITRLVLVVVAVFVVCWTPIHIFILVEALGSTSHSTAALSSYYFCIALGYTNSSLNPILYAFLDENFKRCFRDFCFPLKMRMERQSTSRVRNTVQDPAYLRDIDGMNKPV

Take `CC(C)(C)OC(=O)N[C@@H](Cc1ccccc1)C(=O)N1CCN(C(c2ccc(F)cc2)c2ccc(F)cc2)CC1`: the Activity in experiment [1] came out at 250 nM. With `O=C(O)C(Cc1ccccc1)NC(=O)[C@H](Cc1ccc2c(c1)oc1ccccc12)NCP(=O)(O)O` (some centres undefined), in experiment [2], the Activity was found to be 12 nM.

The compound `CCc1cc(-c2ccn[nH]2)c(O)cc1OCCCOc1ccc(CC(=O)O)cc1` showed an Activity in [3] of 54 nM. Compound `Fc1ccc(CNc2nccc(-c3c(-c4ccc(F)cc4)nc4occn34)n2)cc1` registered an Activity in experiment [4] of 90.9 nM. Compound `CN1CC[C@H](c2ccc(Cl)cc2)[C@H](CSCC(=O)NCCc2ccccc2)C1` yielded an Activity in experiment [5] of 23 nM. With `CC(C)C[C@H](NC(=O)[C@@H](C)NC(=O)[C@@H](Cc1ccccc1)NC(=O)OC(C)(C)C)C(O)CSC(C)C` (single isomer, unassigned), in experiment [6], the Activity worked out at 700 nM. Take `CC(C)CC[C@@H](O)C(CC1CCCCC1)NC(=O)C(C)NC(=O)C(Cc1ccccc1)NC(=O)OC(C)(C)C` (some centres undefined): the Activity in experiment [6] was 200 nM.

As to `Cc1cccc(C[C@@H](NC(=O)C(c2ccccc2)c2ccccc2)C(=O)N[C@@H](C#N)COCc2ccccc2)c1`, in experiment [7], the Activity turned out to be 10.2 nM. On to `CC(C)(C)OC(=O)NC(C(=O)N1CCC[C@H]1C(=O)NCC1CCC(N)CC1)c1ccccc1` (some centres undefined), for which, in experiment [8], the Activity came out at 6.8 nM. In experiment [9], `Cn1c(C(=O)Nc2ccccc2C(=O)NC(Cc2ccccc2)C(=O)O)cc2ccccc21` (centres undefined) yielded an Activity of 350 nM. `C=CCN(CC(=O)OCC)C(=O)/C(C)=C/c1ccc(C(=O)Nc2ccc(C(=N)N)cc2)cc1` had an Activity in experiment [3] of 65 nM.

`CC(C)=CCCN1CCC(NC(=O)[C@@](O)(c2ccccc2)[C@H]2CCC(NC(=O)OCc3ccccc3)C2)CC1` (some centres undefined): the Activity in experiment [10] was determined as 5.2 nM. In turn, `N[C@@H](C(=O)O)[C@H]1[C@H](CNC(=O)Nc2ccccc2)[C@H]1C(=O)O` yielded an Activity in experiment [11] of 530 nM. For the compound `O=C(Nc1ncc([N+](=O)[O-])s1)C(c1ccccc1)c1ccccc1`, in experiment [1], the Activity stood at 250 nM. Turning to `C[C@@]12Cc3cnn(-c4ccc(F)cc4)c3C=C1CC[C@H]1C2=CC[C@H](C(F)(F)F)[C@H]1NCc1ccc(F)cc1`, in [12], the Activity was 3 nM. Turning to `CCCC1(C(=O)Nc2cccc(F)c2)CCc2c(c3ccccc3n2CC(=O)O)C1` (centres undefined), the Activity in experiment [13] amounted to 22 nM. In experiment [9], `COc1ccc(NC(=O)NC2N=C(c3ccccc3)c3ccccc3N(C)C2=O)cc1` (centres undefined) yielded an Activity of 165 nM. Regarding `O=C(C[C@H](CCCc1ccc(Cl)cc1)C(=O)N[C@@H](CC1CCCCC1)C(=O)NCCc1ccccc1)NO`, in [14], the Activity amounted to 7.31 nM. In experiment [15], `O=C(Nc1ccccc1)NC1CC(C(=O)O)Nc2cc(Cl)cc(Cl)c21` (centres undefined) registered an Activity of 2 nM.

`O=C(O)Cc1nn(CC(=O)Nc2cccc(F)c2)c(=O)c2ccccc12` gave an Activity in experiment [16] of 22 nM. `O=C(CCC(NS(=O)(=O)c1ccc2oc3ccccc3c2c1)C(=O)O)NCCc1ccccc1` (centres undefined) yielded an Activity in [14] of 325 nM.

In [17], `COC(=O)N[C@H](C(=O)N(C)[C@@H](CN1CCCC1)c1ccccc1)c1ccccc1` had an Activity of 178 nM. With `CCOC(=O)CN(c1cc(C)cc(OCCc2ccc(C(=N)N)cc2)c1)S(=O)(=O)c1ccccc1Cl`, in experiment [8], the Activity is 300 nM. Turning to `COc1ccc(NC(=O)C(CS)Cc2ccccc2)cc1` (centres undefined), the Activity in experiment [2] was 26 nM.
